Results from US11713309B2, “Solid forms of Cerdulatinib” (Alexion Pharmaceuticals, Inc., priority 2018, dated 2023).
Structures can show the parent of a compound that is named as a salt.

Legend:
Format in all cases: physicochemical
[1] = Solid-state storage stability at controlled temperature/RH; conditions: for Form change / HPLC purity on storage: 2 weeks, initial HPLC purity 99.3%
Method: Storage at 25° C./60% RH and at 40° C./75% RH: Compound I HCl Form I was stored at 25° C./60% RH and at 40° C./75% RH. Initial HPLC purity was 99.3%.

[2] = Approximate kinetic solubility in simulated biological fluids; conditions: about 37° C.; for solubility kinetic at 2 h: equilibrated for 2 hrs; for solubility kinetic at 1 day: equilibrated for 1 day
Description: A summary of the approximate kinetic solubility of Compound I HCl Form I in organic solvents, simulated biological fluids, and common pharmaceutical co-solvents is provided in Tables 8-10, respectively.

[3] = Thermodynamic pH-solubility profile; conditions: 7 days of shaking, about 37° C. water bath
Description: A thermodynamic pH-solubility profile of Compound I HCl Form I in various buffer or non-buffer solutions is further provided in FIG. 61. FIG. 61 additionally includes the thermodynamic pH-solubility profile of Compound I free base. It is of note that no data is shown in the profile of Compound I free base below a pH of about 2.0, as Compound I free base converted to Compound I HCl Form I below a pH of about 2.0. Similarly, no data is shown in the profile of Compound I HCl Form I above a pH of about 3.0, as Compound I HCl Form I converted to Compound I free base above a pH of about 3.0.

[4] = simulated gastric fluid, SGF (pH 1.2)

- Form change on storage (XRPD, TGA and DSC) ([1]; powder, about 6 months, about 40° C./75% RH, open dish): did not exhibit any form change
- solubility kinetic at 2 h ([2]; FaSSIF (pH 6.1)): 3 µg/mL
- solubility kinetic at 1 day ([2]; FaSSIF (pH 6.1)): 3 µg/mL
- solubility kinetic at 2 h ([2]; FeSSIF (pH 5.0)): 35 µg/mL
- solubility kinetic at 1 day ([2]; FeSSIF (pH 5.0)): 39 µg/mL
- solubility kinetic at 2 h [2, 4]: 67 µg/mL
- solubility kinetic at 1 day [2, 4]: 78 µg/mL
- pH range in which Compound I HCl Form I converted to Compound I free base [3]: > 3.0
Compound: CCS(=O)(=O)N1CCN(c2ccc(Nc3ncc(C(N)=O)c(NC4CC4)n3)cc2)CC1 [Compound I HCl Form I, 4-(cyclopropylamino)-2-(4-(4-(ethylsulfonyl)piperazin-1-yl)phenylamino)pyrimidine-5-carboxamide]
- Form change / HPLC purity on storage ([1]; 25° C./60% RH): No form change or decrease in purity by HPLC
- Form change / HPLC purity on storage ([1]; 40° C./75% RH): No form change or decrease in purity by HPLC
